Tests used:
Assay type in all cases: in vivo
[1] = tested on: Male ICR mice; assay: Forced swim test (FST): duration of immobility, struggling and swimming; conditions: DMG 30 mg/kg pretreatment prior to ketamine 10 mg/kg
Method: FST was conducted for two consecutive days. Mice were placed in a Plexiglas cylinder (33.5 cm height, 20 cm diameter) filled with 25±2° C. water to a height of 18-20 cm. For the first exposure, mice were placed in the water for 15 min (pre-test session) followed by […]. Twenty-four hours later (day 1 test session), various doses of test drug (at 0, 30 and 100 mg/kg) was administered 30 min prior to the ketamine (10 mg/kg) or saline. Then, the mice were tested 30 min after ketamine injection which placed in the water again for a 6 min session (test session), the first 2 minutes has elapsed. Immobility was assigned when no additional activity was observed other than that required to keep the head above the water.
This experiment included a control group and various doses of ketamine (3, 10, 15 mg/kg), betaine (10, 20, 30 mg/kg) and betaine (10, 20, 30 mg/kg) pretreatment prior to ketamine (fixed dose at 10 mg/kg). […] There was no significant effect of test session or interaction.

[2] = tested on: Male ICR mice; assay: Rotarod test (motor coordination); conditions: DMG 30 and 100 mg/kg prior to ketamine 30 mg/kg
Method: Motor coordination was examined using an automated rotarod device (Singa; Technology Co., Ltd, Taiwan) for a maximum of 6 mice. A computer recorded the latency to fall in seconds. During two-three days training period, the mice were first trained on the rotarod at a constant speed of 20 rotations per minute (rpm) until all of the mice were able to spend at least 3 min on the road. The test drug (0, 30 and 100 mg/kg) was administered 30 min prior to the ketamine (30 mg/kg) or saline injection. Then, the mice were tested 10, 15, 20, 25, and 30 min after ketamine injection.

[3] = tested on: Male ICR mice; assay: Prepulse inhibition test (PPI) of acoustic startle; conditions: DMG 100 mg/kg pretreatment, ketamine 30 mg/kg; p<0.001
Method: The PPI was operated as described in our previous work (Chan et al., 2012a). Briefly, the animals were initially moved from the home cage, weighed, and then placed into the restrainers in the SR-LAB (San Diego Instruments, San Diego, Calif., USA) acoustic startle chambers for 30-min habituation. The test drug (0, 30 and 100 mg/kg) was administered 30 min prior to ketamine (30 mg/kg) or saline injection. After administration of ketamine or saline, the experiment started with a 5-min adaptation period during which the animals were exposed to 67-dB background white noise, and this background noise was continued throughout the session. Then, the following adaptation period startle session began with five initial startle stimuli (120 dB bursts of white noise, 40 ms duration). After the first five initial stimuli, mice received five different trial types: pulse alone trials (120 dB bursts of white noise, 40 ms duration), three prepulse and pulse trials in which 76, 81, or 86 dB white noise bursts (9, 14, and 19 dB above background) of 20 ms duration preceded 120 dB pulse by 100 ms prepulse onset to pulse onset, and no-stimuli trials during which only background noise was applied. Each of these trial types was presented five times in randomized order. The inter trial interval was 7-23 s, and the test lasted 15 min in total. Prepulse inhibition was calculated as the percent inhibition of the startle amplitude evoked by the pulse alone: % PPI=(magnitude on pulse alone trial−magnitude on prepulse+pulse trial/magnitude on pulse alone trial)×100.

[4] = tested on: Male ICR mice; assay: Novel object recognition test (NORT); conditions: DMG 100 mg/kg pretreatment, ketamine 30 mg/kg; 24 h after sample phase
Method: (§1) The novel location recognition test (NLRT) and novel object recognition test (NORT) were examined in a Plexiglas open field box (35×35×30 cm) located in a sound-attenuated room and illuminated with a 20-W light bulb. The novel location and novel object recognition procedure consisted of habituation, training, and retention sessions. Habituation was conducted in two consecutive daily sessions, during which each mouse was allowed to individually explore the box in the absence of objects for 20 min. The animal is then removed from the arena and placed in its home cage. During the sample phase, each animal was placed in the box, and after 5 min, two identical sample objects (A+A) were simultaneously introduced in two corners. Each animal was allowed to explore the objects for 5 min. An animal was considered to explore the object when its head was facing the object at a distance of approximately 1 cm or less between the head and object or when it was touching or sniffing the object. The time spent exploring each object was recorded using stopwatches by an experimenter blind to the treatment condition.
After the sample phase, the mice were immediately returned to their home cages. The novel location recognition test was conducted 30 min after the training session. The animals were returned to the same box as during the sample phase, and one of the two objects was replaced with a novel local corner (A+A′) to test the location-based recognition memory. After 24 hours, novel object recognition test was performed. The mice are allowed to explore the open field with one identical sample object and a novel object to assess the novel object recognition memory (A+B). The animals were allowed to explore the box freely for 5 min, and the time spent exploring each object was recorded as described above. The objects and chambers were cleaned with 70% ethanol after each use. A preference index, a ratio of the amount of time spent exploring the original object or the novel location/object over the total time spent exploring both objects, was used to evaluate recognition memory. […]

[5] = tested on: Male ICR mice; assay: Novel location recognition test (NLRT); conditions: DMG 100 mg/kg pretreatment, ketamine 30 mg/kg; 30 min after sample phase
Method: as §1
After the sample phase, the mice were immediately returned to their home cages. […] The animals were allowed to explore the box freely for 5 min, and the time spent exploring each object was recorded as described above. […]

[6] = tested on: Male ICR mice; assay: Loss of righting reflex (LORR); conditions: DMG 100 and 300 mg/kg 30 min prior to ketamine 100 mg/kg
Method: The test drug betaine (0, 300, and 600 mg/kg) or DMG (0, 100 and 300 mg/kg) was administered 30 min prior to the anesthetic doses of ketamine (100 mg/kg). Then, the mice were placed in a clean cage until the righting reflex was lost. They were then placed in the supine position until recovery and the onset and duration of the loss of righting reflex was recorded. Recovery of the righting reflex was defined as the ability to perform three successive rightings.

[7] = tested on: Male ICR mice; assay: Open field test / locomotor activity; conditions: DMG 30 and 100 mg/kg pretreatment 30 min prior to ketamine 30 mg/kg
Method: To evaluate the effect of DMG on ketamine-induced locomotor hyperactivity, the animals were moved from the home cage, weighed and placed into an activity cage (Columbus Auto-Track System, Version 3.0 A, Columbus Institute, Columbus, Ohio, USA) for 2 hours. Thereafter, the test drug (0, 30, and 100 mg/kg) was given 30 min prior to ketamine (30 mg/kg) or saline. The distance (cm) traveled was recorded for totally 180 min. A 70% alcohol solution was used to clean the inner surface of all the testing apparatus between trials to remove any potentially interfering odors left by the previous mouse.

[8] = tested on: Male Sprague-Dawley rats; assay: Ketamine intravenous self-administration (IVSA) under progressive ratio (PR) schedule
Method: The dose-dependent effects of betaine and its metabolite DMG on ketamine addiction were evaluated by the intravenous self-administration (IVSA) paradigm under a progressive ratio (PR) schedule. Animals were implanted indwelling catheters flushing of ketamine (0.5 mg/kg/per infusion), termed the training dose, under a FR1 schedule during daily 3-h sessions. After acquisition of stable responding for ketamine (criterion of less than 20% deviation from the mean of the total number of reinforcers earned in three consecutive sessions for each rat), the ketamine reinforcement schedule was changed to FR2 and maintained until responding stabilized at least for 3 days. Then, the PR schedule was conducted. The lever presses required to gain an infusion was determined by: 5×e^(infusion number×0.2)−5 (i.e., 1, 2, 4, 6, 9, […], 15, 20, 25, 32, etc). […] The dose-dependent effects of betaine of self-administration of various doses of ketamine ([…]) were assessed by pretreatment 30 min prior to their daily operant session using a within-subject Latin square design.

[9] = tested on: Male ICR mice; assay: Forced swim test (FST): duration of immobility, struggling and swimming

CN(C)CC(=O)O [DMG, N,N-dimethylglycine]
duration of immobility in FST compared with ketamine (10 mg/kg) alone [1]: significantly shorter duration of immobility | ketamine-induced motor in coordination [2]: significantly reduced | ketamine-induced disruption of PPI [3]: significantly attenuated | ketamine-induced recognition memory impairment in NORT [4]: significantly attenuated | ketamine-induced recognition memory impairment in NLRT [5]: significantly attenuated | duration of ketamine-induced loss of righting reflex [6]: did not affect | onset of ketamine-induced loss of righting reflex [6]: did not affect | ketamine-induced locomotor hyperactivity [7]: reduced | reduction of cumulative responses by ketamine ([8]; DMG 100 mg/kg pretreatment, ketamine 0.3 mg/kg/infusion, PR schedule): 40% | ketamine self-administration under PR schedule ([8]; DMG pretreatment): significantly decreased | duration of immobility in FST ([9]; DMG 10, 20 and 30 mg/kg alone): significantly decreased | duration of immobility in FST ([9]; DMG 10, 20 and 30 mg/kg pretreatment prior to ketamine 10 mg/kg): significantly decreased
